Among the data in patent publication US8063220B2, “Sulfonyl-quinoline derivatives” (Richter Gedeon Nyrt., priority 2007, dated 2011) are Ki values, retold here.

The target of one experiment is T1, rat mGluR5 (Rattus norvegicus, UniProt P31424).
T1 construct: Rat cerebro-cortical membrane preparation was used; from tissue; host or cells: rat cerebral cortex (membrane preparation)
Briefly: MGluR5 receptor binding test ([3H]-M-MPEP displacement, rat cerebro-cortical membrane preparation). The following applies: rat mGluR5, [3H]-M-MPEP 2 nM; read-out: mGlu5 Ki. As for the experimental part:
Rat cerebro-cortical membrane preparation was used to determine the binding characteristics of reference compounds and novel compounds to the rat mGluR5. The A18 cell line expressing hmGluR5a (purchased from Euroscreen) was used to determine binding characteristics of the chemical compounds to the human mGluR5a receptor. [3H]-M-MPEP (2 nM) was used as radioligand. The nonspecific binding was determined in the presence of 10 μM M-MPEP.

The target of another experiment is T2, rat mGluR1 (Rattus norvegicus, UniProt P23385).
T2 construct: rat cerebellar membrane preparation was used; from tissue; host or cells: rat cerebellum (membrane preparation)
T2 sequence (P23385 19-1199): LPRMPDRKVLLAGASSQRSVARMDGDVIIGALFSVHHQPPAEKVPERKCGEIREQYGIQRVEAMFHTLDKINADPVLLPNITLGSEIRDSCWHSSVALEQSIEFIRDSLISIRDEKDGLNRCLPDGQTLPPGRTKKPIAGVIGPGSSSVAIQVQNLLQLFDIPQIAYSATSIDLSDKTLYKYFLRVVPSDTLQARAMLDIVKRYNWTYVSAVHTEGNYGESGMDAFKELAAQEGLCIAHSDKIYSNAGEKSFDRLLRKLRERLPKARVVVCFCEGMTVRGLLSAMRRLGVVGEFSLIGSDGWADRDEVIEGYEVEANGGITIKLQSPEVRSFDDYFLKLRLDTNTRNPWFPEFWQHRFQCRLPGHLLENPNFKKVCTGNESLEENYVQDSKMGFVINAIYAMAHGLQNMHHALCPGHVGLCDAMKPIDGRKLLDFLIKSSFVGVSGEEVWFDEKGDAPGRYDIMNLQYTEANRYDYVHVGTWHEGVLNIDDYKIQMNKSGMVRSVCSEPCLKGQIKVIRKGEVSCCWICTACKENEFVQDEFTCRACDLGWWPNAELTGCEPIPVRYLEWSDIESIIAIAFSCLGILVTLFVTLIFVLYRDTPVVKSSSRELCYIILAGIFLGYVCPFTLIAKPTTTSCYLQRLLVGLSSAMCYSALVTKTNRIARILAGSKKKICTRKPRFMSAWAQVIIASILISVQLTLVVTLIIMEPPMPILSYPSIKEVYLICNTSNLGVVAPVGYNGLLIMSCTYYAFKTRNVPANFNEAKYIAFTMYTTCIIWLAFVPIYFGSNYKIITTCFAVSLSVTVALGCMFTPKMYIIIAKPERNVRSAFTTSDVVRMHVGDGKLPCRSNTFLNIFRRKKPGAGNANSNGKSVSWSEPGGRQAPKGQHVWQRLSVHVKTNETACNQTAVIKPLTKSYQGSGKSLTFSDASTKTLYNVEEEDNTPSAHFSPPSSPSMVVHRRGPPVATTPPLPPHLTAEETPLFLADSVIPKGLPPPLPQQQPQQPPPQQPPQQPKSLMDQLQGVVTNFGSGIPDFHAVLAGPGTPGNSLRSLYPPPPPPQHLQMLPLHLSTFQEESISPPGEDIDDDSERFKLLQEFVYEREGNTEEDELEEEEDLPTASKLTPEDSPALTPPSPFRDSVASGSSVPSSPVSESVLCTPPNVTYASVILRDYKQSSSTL
Briefly: MGluR1 receptor binding test ([3H]R214127 displacement, rat cerebellar membrane preparation). The note with it: rat mGluR1, [3H]R214127 3 nM; read-out: mGlu1 Ki. As for the experimental part: MGluR1 receptor binding tests were performed according to modified method of Lavreysen et al. (Mol. Pharm., 2003, 63, 1082). Based on the high homology between the human and rat mGluR1 receptors, rat cerebellar membrane preparation was used to determine the binding characteristics of reference compounds and novel compounds to the rat mGluR1. [3H]R214127 (3 nM) was used as radioligand and the nonspecific binding was determined in the presence of 1 μM of R214127.
IC-50 values were determined from displacement curves by nonlinear regression analysis and were converted to Ki values using the equation method of Cheng and Prusoff (Biochem. Pharmacol., 1973, 22, 3099).

T1 sequence (P31424 21-1203): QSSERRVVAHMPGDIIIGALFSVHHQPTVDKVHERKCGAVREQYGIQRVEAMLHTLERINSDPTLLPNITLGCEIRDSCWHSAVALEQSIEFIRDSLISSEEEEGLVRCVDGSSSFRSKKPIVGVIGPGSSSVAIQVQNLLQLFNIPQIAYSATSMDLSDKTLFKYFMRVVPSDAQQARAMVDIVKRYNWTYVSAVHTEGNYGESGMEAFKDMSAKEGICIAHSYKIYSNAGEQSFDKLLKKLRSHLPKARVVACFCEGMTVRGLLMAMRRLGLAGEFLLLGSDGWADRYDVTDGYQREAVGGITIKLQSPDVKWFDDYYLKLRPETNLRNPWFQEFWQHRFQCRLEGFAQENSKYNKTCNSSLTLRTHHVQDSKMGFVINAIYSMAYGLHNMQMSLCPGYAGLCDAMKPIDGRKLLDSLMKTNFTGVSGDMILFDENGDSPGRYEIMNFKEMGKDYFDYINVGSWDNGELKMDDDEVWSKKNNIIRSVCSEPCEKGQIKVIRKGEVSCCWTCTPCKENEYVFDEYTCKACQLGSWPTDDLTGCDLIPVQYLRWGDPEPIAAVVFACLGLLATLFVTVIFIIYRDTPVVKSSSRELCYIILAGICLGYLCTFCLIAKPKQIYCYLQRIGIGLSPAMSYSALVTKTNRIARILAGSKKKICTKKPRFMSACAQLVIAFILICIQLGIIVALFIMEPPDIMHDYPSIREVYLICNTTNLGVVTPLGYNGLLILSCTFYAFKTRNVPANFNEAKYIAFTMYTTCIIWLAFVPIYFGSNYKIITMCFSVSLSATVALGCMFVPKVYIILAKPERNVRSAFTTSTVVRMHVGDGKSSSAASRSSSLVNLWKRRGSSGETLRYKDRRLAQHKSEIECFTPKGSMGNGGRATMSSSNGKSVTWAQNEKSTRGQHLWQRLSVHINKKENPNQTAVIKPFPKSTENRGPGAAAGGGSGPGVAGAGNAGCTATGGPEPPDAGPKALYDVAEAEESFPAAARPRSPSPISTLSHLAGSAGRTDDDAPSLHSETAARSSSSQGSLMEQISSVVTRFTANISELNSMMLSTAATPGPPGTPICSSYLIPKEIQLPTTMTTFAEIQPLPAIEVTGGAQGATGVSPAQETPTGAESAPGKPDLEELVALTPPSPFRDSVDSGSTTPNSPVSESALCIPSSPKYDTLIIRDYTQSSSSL

As a reminder, the Ki is the equilibrium dissociation constant of an inhibitor or competing ligand from its target. As for `O=S(=O)(c1ccc(F)c(Cl)c1)c1cnc2cc(F)ccc2c1-c1cccc(F)c1` [Compound 103], the Ki on rat mGluR5 and at rat mGluR1 was under 200 nM in each case.

In the case of `COc1ccc(-c2c(S(=O)(=O)c3ccc(F)c(Cl)c3)cnc3cc(F)ccc23)cc1` [Compound 104], the results for the Ki on rat mGluR5 and at rat mGluR1 were under 200 nM and 200 to 500 nM, respectively.

Take `O=S(=O)(c1ccc(F)c(Cl)c1)c1cnc2cc(F)ccc2c1-c1ccc(F)cc1` [Compound 105]: the Ki at rat mGluR5 and at rat mGluR1 was under 200 nM in each case.

Turning to `O=S(=O)(c1cc(Cl)cc(Cl)c1)c1cnc2c(F)cccc2c1-c1cccc(F)c1` [Compound 106], the Ki on rat mGluR5 was under 200 nM; on rat mGluR1, over 500 nM.

Turning to `COc1ccc(-c2c(S(=O)(=O)c3cc(Cl)cc(Cl)c3)cnc3c(F)cccc23)cc1` [Compound 107], the Ki at rat mGluR5 was under 200 nM; on rat mGluR1, over 500 nM.

Consider `COc1cccc(-c2c(S(=O)(=O)c3cc(Cl)cc(Cl)c3)cnc3c(F)cccc23)c1` [Compound 108], for which the Ki on rat mGluR5 was under 200 nM; at rat mGluR1, over 500 nM.

As to `Cc1ccc(S(=O)(=O)c2cnc3c(F)cccc3c2-c2cccc(Cl)c2)cc1F` [Compound 109], the Ki was under 200 nM at rat mGluR5 and over 500 nM on rat mGluR1.

As to `Cc1ccc(S(=O)(=O)c2cnc3c(F)cccc3c2-c2ccc(Cl)cc2)cc1F` [Compound 110], the results for the Ki on rat mGluR5 and at rat mGluR1 were under 200 nM and over 500 nM, respectively.

Take `Cc1ccc(S(=O)(=O)c2cnc3c(F)cccc3c2-c2cccc(F)c2)cc1F` [Compound 111]: the Ki on rat mGluR5 is under 200 nM; on rat mGluR1, over 500 nM.

Take `COc1ccc(-c2c(S(=O)(=O)c3ccc(C)c(F)c3)cnc3c(F)cccc23)cc1` [Compound 112]: the Ki at rat mGluR5 was under 200 nM; at rat mGluR1 it was over 500 nM.

Consider `COc1cccc(-c2c(S(=O)(=O)c3ccc(C)c(F)c3)cnc3c(F)cccc23)c1` [Compound 113], for which the figures for the Ki at rat mGluR5 and at rat mGluR1 were under 200 nM and over 500 nM, respectively.

On to `Cc1ccc(S(=O)(=O)c2cnc3c(F)cccc3c2-c2ccc(F)cc2)cc1F` [Compound 114], for which the Ki is under 200 nM on rat mGluR5 and over 500 nM on rat mGluR1.

Regarding `O=S(=O)(c1cc(F)cc(F)c1)c1cnc2c(F)cccc2c1-c1cccc(Cl)c1` [Compound 115], the results for the Ki at rat mGluR5 and on rat mGluR1 were under 200 nM and 200 to 500 nM, respectively.

`O=S(=O)(c1cc(F)cc(F)c1)c1cnc2c(F)cccc2c1-c1ccc(Cl)cc1` [Compound 116]: the Ki on rat mGluR5 is under 200 nM; at rat mGluR1, 200 to 500 nM.

For the molecule `COc1ccc(-c2c(S(=O)(=O)c3cc(F)cc(F)c3)cnc3c(F)cccc23)cc1` [Compound 117], the inhibitory constant (Ki) was under 200 nM at rat mGluR5 and over 500 nM at rat mGluR1.

`COc1cccc(-c2c(S(=O)(=O)c3cc(F)cc(F)c3)cnc3c(F)cccc23)c1` [Compound 118]: the figures for the Ki at rat mGluR5 and at rat mGluR1 were under 200 nM and over 500 nM, respectively.

`O=S(=O)(c1cc(F)cc(F)c1)c1cnc2c(F)cccc2c1-c1ccc(F)cc1` [Compound 119]: the Ki at rat mGluR5 and at rat mGluR1 was under 200 nM each time.

Regarding `O=S(=O)(c1ccc(F)c(F)c1)c1cnc2c(F)cccc2c1-c1ccc(Cl)cc1` [Compound 120], the Ki is under 200 nM at rat mGluR5 and 200 to 500 nM on rat mGluR1.

In the case of `O=S(=O)(c1ccc(F)c(F)c1)c1cnc2c(F)cccc2c1-c1cccc(F)c1` [Compound 121], the Ki on rat mGluR5 and at rat mGluR1 was under 200 nM each time.

Regarding `COc1ccc(-c2c(S(=O)(=O)c3ccc(F)c(F)c3)cnc3c(F)cccc23)cc1` [Compound 122], the Ki at rat mGluR5 was under 200 nM; at rat mGluR1, over 500 nM.

For `O=S(=O)(c1ccc(F)c(F)c1)c1cnc2c(F)cccc2c1-c1ccc(F)cc1` [Compound 123], the Ki on rat mGluR5 and at rat mGluR1 was under 200 nM throughout.

On to `O=S(=O)(c1cc(Cl)cc(Cl)c1)c1cnc2ccc(F)cc2c1-c1cccc(F)c1` [Compound 124], for which the Ki at rat mGluR5 is under 200 nM; at rat mGluR1 it was 200 to 500 nM.

Regarding `COc1ccc(-c2c(S(=O)(=O)c3cc(Cl)cc(Cl)c3)cnc3ccc(F)cc23)cc1` [Compound 125], the values for the Ki on rat mGluR5 and at rat mGluR1 were under 200 nM and over 500 nM, respectively.

In the case of `COc1cccc(-c2c(S(=O)(=O)c3cc(Cl)cc(Cl)c3)cnc3ccc(F)cc23)c1` [Compound 126], the Ki is under 200 nM on rat mGluR5 and over 500 nM on rat mGluR1.

As for `Cc1ccc(S(=O)(=O)c2cnc3ccc(F)cc3c2-c2cccc(Cl)c2)cc1F` [Compound 127], the Ki at rat mGluR5 was under 200 nM; on rat mGluR1, over 500 nM.

Regarding `Cc1ccc(S(=O)(=O)c2cnc3ccc(F)cc3c2-c2cccc(F)c2)cc1F` [Compound 128], the results for the Ki at rat mGluR5 and on rat mGluR1 were under 200 nM and over 500 nM, respectively.

Regarding `COc1ccc(-c2c(S(=O)(=O)c3ccc(C)c(F)c3)cnc3ccc(F)cc23)cc1` [Compound 129], the Ki was under 200 nM on rat mGluR5 and over 500 nM on rat mGluR1.

In the case of `COc1cccc(-c2c(S(=O)(=O)c3ccc(C)c(F)c3)cnc3ccc(F)cc23)c1` [Compound 130], the Ki on rat mGluR5 is under 200 nM; on rat mGluR1, over 500 nM.

As to `Cc1ccc(S(=O)(=O)c2cnc3ccc(F)cc3c2-c2ccc(F)cc2)cc1F` [Compound 131], the inhibition constant Ki on rat mGluR5 is under 200 nM; at rat mGluR1, over 500 nM.

For `O=S(=O)(c1cc(F)cc(F)c1)c1cnc2ccc(F)cc2c1-c1ccc(Cl)cc1` [Compound 132], the Ki on rat mGluR5 was 200 to 500 nM; on rat mGluR1, over 500 nM.

For `COc1ccc(-c2c(S(=O)(=O)c3cc(F)cc(F)c3)cnc3ccc(F)cc23)cc1` [Compound 133], the Ki was 200 to 500 nM at rat mGluR5 and over 500 nM on rat mGluR1.

For the molecule `COc1cccc(-c2c(S(=O)(=O)c3cc(F)cc(F)c3)cnc3ccc(F)cc23)c1` [Compound 134], the Ki is 200 to 500 nM at rat mGluR5 and over 500 nM on rat mGluR1.

Consider `N#Cc1cccc(S(=O)(=O)c2cnc3ccc(F)cc3c2-c2cccc(Cl)c2)c1` [Compound 135], for which the Ki on rat mGluR5 is under 200 nM; on rat mGluR1 it was 200 to 500 nM.

With `N#Cc1cccc(S(=O)(=O)c2cnc3ccc(F)cc3c2-c2ccc(Cl)cc2)c1` [Compound 136], the Ki at rat mGluR5 was under 200 nM; on rat mGluR1, 200 to 500 nM.

For the molecule `COc1ccc(-c2c(S(=O)(=O)c3cccc(C#N)c3)cnc3ccc(F)cc23)cc1` [Compound 137], the Ki is under 200 nM at rat mGluR5 and over 500 nM at rat mGluR1.

`Cc1ccc(S(=O)(=O)c2cnc3ccc(F)cc3c2-c2cccc(Cl)c2)cc1Cl` [Compound 138]: the Ki is under 200 nM at rat mGluR5 and over 500 nM on rat mGluR1.

Consider `Cc1ccc(S(=O)(=O)c2cnc3ccc(F)cc3c2-c2ccc(Cl)cc2)cc1Cl` [Compound 139], for which the Ki was under 200 nM at rat mGluR5 and over 500 nM on rat mGluR1.

With `Cc1ccc(S(=O)(=O)c2cnc3ccc(F)cc3c2-c2cccc(F)c2)cc1Cl` [Compound 140], the figures for the Ki on rat mGluR5 and on rat mGluR1 were under 200 nM and over 500 nM, respectively.

With `COc1cccc(-c2c(S(=O)(=O)c3ccc(C)c(Cl)c3)cnc3ccc(F)cc23)c1` [Compound 141], the Ki on rat mGluR5 was under 200 nM; at rat mGluR1, over 500 nM.

For the molecule `Cc1ccc(S(=O)(=O)c2cnc3ccc(F)cc3c2-c2ccc(F)cc2)cc1Cl` [Compound 142], the figures for the Ki at rat mGluR5 and on rat mGluR1 were under 200 nM and over 500 nM, respectively.

As to `COc1ccc(S(=O)(=O)c2cnc3ccc(F)cc3c2-c2ccc(F)cc2)cc1` [Compound 143], the inhibition constant (Ki) at rat mGluR5 is 200 to 500 nM; on rat mGluR1, over 500 nM.

Turning to `COc1cccc(S(=O)(=O)c2cnc3ccc(F)cc3c2-c2ccc(Cl)cc2)c1` [Compound 144], the Ki at rat mGluR5 was under 200 nM; at rat mGluR1, over 500 nM.

Turning to `COc1ccc(-c2c(S(=O)(=O)c3cccc(OC)c3)cnc3ccc(F)cc23)cc1` [Compound 145], the Ki is under 200 nM at rat mGluR5 and over 500 nM at rat mGluR1.

Consider `Cc1ccc(S(=O)(=O)c2cnc3ccc(F)cc3c2-c2cccc(F)c2)cc1C` [Compound 146], for which the Ki was under 200 nM on rat mGluR5 and over 500 nM on rat mGluR1.

Regarding `COc1ccc(-c2c(S(=O)(=O)c3ccc(C)c(C)c3)cnc3ccc(F)cc23)cc1` [Compound 147], the Ki on rat mGluR5 is under 200 nM; at rat mGluR1, over 500 nM.

For `Cc1ccc(S(=O)(=O)c2cnc3ccc(F)cc3c2-c2ccc(F)cc2)cc1C` [Compound 148], the figures for the Ki on rat mGluR5 and at rat mGluR1 were under 200 nM and over 500 nM, respectively.

As for `O=S(=O)(c1ccc(F)c(F)c1)c1cnc2ccc(F)cc2c1-c1cccc(Cl)c1` [Compound 149], the Ki on rat mGluR5 and on rat mGluR1 was 200 to 500 nM throughout.

As for `O=S(=O)(c1ccc(F)c(F)c1)c1cnc2ccc(F)cc2c1-c1cccc(F)c1` [Compound 150], the Ki was under 200 nM at rat mGluR5 and 200 to 500 nM on rat mGluR1.

Turning to `COc1cccc(-c2c(S(=O)(=O)c3ccc(F)c(F)c3)cnc3ccc(F)cc23)c1` [Compound 151], the figures for the inhibitory constant (Ki) at rat mGluR5 and at rat mGluR1 were 200 to 500 nM and over 500 nM, respectively.

As to `O=S(=O)(c1ccc(F)c(F)c1)c1cnc2ccc(F)cc2c1-c1ccc(F)cc1` [Compound 152], the Ki on rat mGluR5 was under 200 nM; on rat mGluR1, 200 to 500 nM.

Regarding `O=S(=O)(c1ccc(F)c(Cl)c1)c1cnc2ccc(F)cc2c1-c1ccc(Cl)cc1` [Compound 153], the Ki was under 200 nM on rat mGluR5 and 200 to 500 nM at rat mGluR1.

As for `COc1cccc(-c2c(S(=O)(=O)c3ccc(F)c(Cl)c3)cnc3ccc(F)cc23)c1` [Compound 154], the values for the inhibitory constant (Ki) on rat mGluR5 and at rat mGluR1 were under 200 nM and over 500 nM, respectively.
